Measured values: paper PMC6177235 (Bioorganic & medicinal chemistry, 2018)
Converted amounts (≈) assume the structure as drawn. “Also recorded” adds a separate entry of the source.

Experiments:
[1] = tested on: OVCAR3 human ovarian cancer cell line; test: Cytotoxicity assay, OVCAR3 cells; format: cell-based; settings: OVCAR-3, 72 h, read-out: IC50 toward OVCAR3 cells
[2] = tested on: DU145 human prostate cancer cells; settings: prostate tumor model; cited from earlier work
[3] = tested on: HT-29, MDA-MB-231, MDA-MB-435 and OVCAR3 human cancer cell lines; test: Cytotoxicity assays, statements on the whole panel of cell lines; settings: all cytotoxicity assays used
[4] = tested on: mitochondrial transmembrane potential (MTP) in HT-29 cells; test: Mitochondrial transmembrane potential; format: cell-based, human
[5] = Cytotoxicity assays, statements on the whole panel of cell lines; settings: human
NF-κB p65 in HeLa cells = NF-κB p65 in HeLa cells (Homo sapiens, UniProt Q04206); test: Enzyme-based ELISA assay for NF-κB inhibition; format: cell-based
melanoma tumor = settings: cited from earlier work
in vitro = settings: human

Chain of NF-κB p65 in HeLa cells (Q04206 whole entry): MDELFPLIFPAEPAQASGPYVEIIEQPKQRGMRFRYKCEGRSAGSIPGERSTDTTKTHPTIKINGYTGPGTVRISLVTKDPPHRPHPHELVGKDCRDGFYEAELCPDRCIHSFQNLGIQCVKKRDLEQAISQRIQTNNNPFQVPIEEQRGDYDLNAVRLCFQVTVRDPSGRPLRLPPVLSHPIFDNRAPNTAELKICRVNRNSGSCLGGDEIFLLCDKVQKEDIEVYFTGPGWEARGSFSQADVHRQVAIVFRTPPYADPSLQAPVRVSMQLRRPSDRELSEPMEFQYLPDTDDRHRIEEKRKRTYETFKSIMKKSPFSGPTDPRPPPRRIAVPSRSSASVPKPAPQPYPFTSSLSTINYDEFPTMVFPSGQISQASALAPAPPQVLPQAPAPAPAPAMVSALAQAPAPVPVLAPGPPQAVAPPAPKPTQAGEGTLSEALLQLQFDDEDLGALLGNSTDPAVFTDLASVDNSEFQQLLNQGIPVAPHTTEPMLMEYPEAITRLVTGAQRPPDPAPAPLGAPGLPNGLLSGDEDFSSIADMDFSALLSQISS

SMILES	activity in the cytotoxicity assays (in words) [3]	activity in the MTP inhibition assay (in words) [4]	IC50 at 72 h [5]	activity in the NF-κB inhibition assay (in words) (NF-κB p65 in HeLa cells)	further results
C[C@H]1[C@H](C)CC[C@]2(C(=O)O)CC[C@]3(C)C(=CC[C@@H]4[C@@]5(C)CC[C@H](O)C(C)(C)[C@@H]5CC[C@]43C)[C@H]12 [Compound 1, (+)-ursolic acid]					IC50 [1]: 12.9 µg/mL (≈ 28.2 µM); mouse body weight [2]: without significant decrease
CC1(C)CC[C@]2(C(=O)O)CC[C@]3(C)C(=CC[C@@H]4[C@@]5(C)CC[C@H](O)C(C)(C)[C@@H]5CC[C@]43C)[C@@H]2C1 [Compound 8, (+)-oleanolic acid]	Neither 8 nor 9 showed activity	inactive			
C=C(C)[C@@H]1CC[C@]2(C(=O)O)CC[C@]3(C)[C@H](CC[C@@H]4[C@@]5(C)CC[C@H](OC(=O)/C=C/c6ccc(O)c(OC)c6)C(C)(C)[C@@H]5CC[C@]43C)[C@@H]12 [S13, (+)-3β-O−tram,-feruloylbetulinic acid]		active	> 10 µM	exhibited activity	
C=C(C)[C@@H]1CC[C@]2(CO)CC[C@]3(C)[C@H](CC[C@@H]4[C@@]5(C)CC[C@H](O)C(C)(C)[C@@H]5CC[C@]43C)[C@@H]12 [Compound 12, (+)-betulin]	did not show any activities	did not show any activities; also recorded: inactive	> 10 µM	exhibited activity	
C=C(C)[C@@H]1CC[C@]2(C(=O)O)CC[C@]3(C)[C@H](CC[C@@H]4[C@@]5(C)C[C@@H](O)[C@H](O)C(C)(C)[C@@H]5CC[C@]43C)[C@@H]12 [Compound 5, (+)-alphitolic acid]			> 10 µM	exhibited activity	
C=C(C)[C@@H]1CC[C@]2(C(=O)O)CC[C@]3(C)[C@H](CC[C@@H]4[C@@]5(C)CC[C@H](O)C(C)(C)[C@@H]5CC[C@]43C)[C@@H]12 [Compound 9, (+)-betulinic acid]	Neither 8 nor 9 showed activity	same potency as 1; also recorded: active			melanoma tumor growth in vivo (melanoma tumor; mice): inhibit completely; toxicity observed in mice (melanoma tumor; mouse, in vivo): without any obvious toxicity
C[C@H]1[C@H](C)CC[C@]2(CO)CC[C@]3(C)C(=CC[C@@H]4[C@@]5(C)CC[C@H](O)C(C)(C)[C@@H]5CC[C@]43C)[C@H]12 [Compound 10, (+)-uvaol]	did not show any activities	did not show any activities		did not show any activities	
C=C(C)[C@@H]1CC[C@]2(C(=O)OC)CC[C@]3(C(=O)O)[C@H](CC[C@@H]4[C@@]5(C)CC[C@H](O)C(C)(C)[C@@H]5CC[C@]43C)[C@@H]12 [Compound 3, (+)-melaleucic acid 28-methyl ester]			> 10 µM	exhibited activity	
CC1(C)CC[C@]2(CO)CC[C@]3(C)C(=CC[C@@H]4[C@@]5(C)CC[C@H](O)C(C)(C)[C@@H]5CC[C@]43C)[C@@H]2C1 [Compound 11, (+)-erythrodiol]	did not show any activities	did not show any activities		did not show any activities	
C=C(C)[C@@H]1CC[C@]2(C(=O)O)CC[C@]3(C(=O)O)[C@H](CC[C@@H]4[C@@]5(C)CC[C@H](O)C(C)(C)[C@@H]5CC[C@]43C)[C@@H]12 [Compound 4, (+)-melaleucic acid]			> 10 µM		
C=C(C)[C@@H]1CC[C@]2(C(=O)O)CC[C@]3(CO)[C@H](CC[C@@H]4[C@@]5(C)CC[C@H](O)C(C)(C)[C@@H]5CC[C@]43C)[C@@H]12 [Compound 6, (+)-cylicodiscic acid]			> 10 µM		
C=C(C)[C@@H]1CC[C@]2(C(=O)O)CC[C@]3(C)[C@H](CC[C@@H]4[C@@]5(C)C[C@@H](O)[C@H](OC(=O)/C=C/c6ccc(O)cc6)C(C)(C)[C@@H]5CC[C@]43C)[C@@H]12 [Compound 7, (+)-3-O−β-trans-p−coumaroylalphitolic acid]				exhibited activity	IC50 at 72 h (in vitro): > 10 µM
